Measured values: US20090136624A1, “LACTIC ACID BACTERIA PRODUCING NISIN AT HIGH CONCENTRATION AND METHOD FOR SELECTING THE SAME” (Ajinomoto Co., Inc., priority 2004, published 2009)

Legend:
[1] = test system: Nisin Z-producing strain (parent strain); test: Growth of parent strain on Nisin-containing M17 medium (MIC); format: cell-based, Lactococcus lactis; settings: 30° C., 2 days
Description: A Nisin Z-producing strain (parent strain shown in Table 3) separated from its native environment was plated on M17 medium (manufactured by Difco) prepared such that a Nisin concentration became 1,000, 2,000, 5,000 or 10,000 IU/mL, and was cultured at 30° C. for 2 days. This strain grew in M17 medium having a Nisin concentration of 1,000 or 2,000 IU/mL, but not in M17 medium having a Nisin concentration of 5,000 or 10,000 IU/mL. From the results, it was confirmed that the minimum growth inhibitory concentration (MIC) of this strain to Nisin was 5,000 IU/mL.

[2] = test system: Nisin Z-producing lactic acid bacteria (mutated strain); test: Growth of NTG-mutated Nisin Z-producing lactic acid bacteria in Nisin-containing M17 medium; format: cell-based, Lactococcus lactis
Description: The Nisin Z-producing lactic acid bacteria separated from its native environment were precultured in M17 medium, and the lactic acid bacteria were treated with 500 μg/mL of NTG to induce mutation.

For Nisin, the “minimum growth inhibitory concentration (MIC) of this strain to Nisin” value [1] was 5,000 IU/mL, the Growth number ([2]; Nisin conc. 1,000 IU/ml) was 1.20E+09 cell/ml and the Growth number ([2]; Nisin conc. 2,000 IU/ml) was 1.20E+09 cell/ml. The Growth number ([2]; Nisin conc. 4,000 IU/ml) was 1.20E+09 cell/ml, the Growth number ([2]; Nisin conc. 8,000 IU/ml) was 7.00E+08 cell/ml and the Growth number ([2]; Nisin conc. 10,000 IU/ml) was 1.14E+08 cell/ml. It also gave a Growth number ([2]; Nisin conc. 20,000 IU/ml) of 3.21E+07 cell/ml, a Growth number ([2]; Nisin conc. 40,000 IU/ml) of 9.35E+05 cell/ml and a Growth number ([2]; Nisin conc. 80,000 IU/ml) of 1.16E+03 cell/ml. For the same substance, the Growth number ([2]; Nisin conc. 100,000 IU/ml) was 4.76E+02 cell/ml.
